Test results from ChEMBL document CHEMBL1130955, “Solid-phase synthesis of potential protein tyrosine phosphatase inhibitors via the Ugi four-component condensation” (Bioorg Med Chem Lett, 1998).

assay: Compound was tested for the inhibition of PTP-epsilon at the concentration 100 uM

inhibition, > 50%:
CCCCCC(NC(=O)c1ccc(C(F)(F)P(=O)(O)O)cc1)C(=O)NCc1ccccc1 (stereo not drawn)
O=C(NC(C(=O)NCc1ccccc1)c1ccc(Oc2ccccc2)cc1)c1ccc(C(F)(F)P(=O)(O)O)cc1 (stereo not drawn)
CN(C)c1ccc(C(NC(=O)c2ccc(C(F)(F)P(=O)(O)O)cc2)C(=O)NCc2ccccc2)cc1 (stereo not drawn)
